{
  "source": "paper PMC7021761",
  "about": "(Nature Communications, 2020)",
  "key": {"FPR1": {"system": "FPR1", "conditions": "cited from earlier work", "description": "FPR1 and FPR2 share a high 69% sequence identity, but they have distinct preferences for formylpeptides and play different roles in host defense[4],[40],[43]. […] To explore the molecular basis for the different receptor pharmacology, we generated a three-dimensional homology model of FPR1 ..."}, "C5aR": {"biological_target": "T1, C5aR (Homo sapiens, UniProt P21730)", "T1 construct": "expressed in transfected cells; host or cells: Sf9 insect cells, membranes", "T1 sequence (P21730 1-350)": "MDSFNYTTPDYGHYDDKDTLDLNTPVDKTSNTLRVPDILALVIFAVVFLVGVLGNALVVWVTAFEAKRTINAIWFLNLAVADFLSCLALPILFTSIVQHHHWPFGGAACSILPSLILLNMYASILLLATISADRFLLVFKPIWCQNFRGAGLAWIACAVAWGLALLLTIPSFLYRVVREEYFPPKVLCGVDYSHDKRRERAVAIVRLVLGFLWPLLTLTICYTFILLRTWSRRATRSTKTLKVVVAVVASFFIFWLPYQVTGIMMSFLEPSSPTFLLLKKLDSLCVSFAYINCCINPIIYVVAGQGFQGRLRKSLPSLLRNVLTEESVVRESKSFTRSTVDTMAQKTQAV", "experiment": "35S-GTPγS binding assay, Sf9 cell membranes overexpressing C5aR with purified Gi (control)", "assay_type": "biochemical", "conditions": "increasing concentrations of WKYMVm, n = 3", "protocol": "To form receptor-Gi complex, ~250 μg/ml of membrane of Sf9 cells overexpressing FPR2 or C5aR (for Fig. 1a) or membrane of HEK-293 cells transiently expressing FPR2 and mutants was incubated with 200 nM purified Gi protein for 25 minutes at 4°C in buffer containing 20 mM HEPES pH 7.5, 100 mM NaCl, 5 mM MgCl2, 5 μM GDP, 0.1 μM TCEP, and 3 μg/ml BSA. […] After 10–15 min reaction at 25 °C, 4 ml of cold wash buffer containing 20 mM HEPES pH 7.5, 100 mM NaCl and 5 mM MgCl2 was added to terminate the reaction, and the membranes was collected by filtering through glass fiber prefilters (Millipore Sigma). After four times additional wash, the filters were incubated with 5 ml of CytoScint liquid scintillation cocktail (MP Biomedicals) and counted in a Beckman LS6500 scintillation counter to determine the receptor activation induced binding of ^35S-GTPγS to Gi. The data were analyzed by GraphPad Prism 6 (GraphPad Software). Results are presented as mean ± s.e.m. from three independent experiments."}, "[1]": {"experiment": "Aggregation of the ligand in assay buffer (authors' reply to reviewer)", "assay_type": "physicochemical", "conditions": "peptide with a high hydrophobicity; authors' statement in rebuttal, no data shown"}, "FPR2 R205A [2]": {"biological_target": "T2, FPR2 R205A (Homo sapiens, UniProt P25090, R205A)", "experiment": "BRET assay of Gi coupling to FPR2-Rluc8, permeabilized HEK-293 cells, R205A", "assay_type": "cell-based", "set-up": "expressed in transfected cells; host or cells: HEK-293 cells (ATCC), transient, digitonin-permeabilized", "protocol": "(§1) HEK-293 cells (ATCC, Manassas, VA, USA) were propagated in plastic flasks and on 6-well plates according to the supplier’s protocol. To measure Gi coupling to FPR2, cells were transiently transfected with an FPR2-Rluc8 receptor (wt or mutant) and Gαi1, Venus-1-155-Gγ2 and Venus-155-239-Gβ1 using linear polyethyleneimine MAX (PEI MAX; MW 40,000) at an N/P ratio of 20 and were used for experiments 48 h later. Up to 3.0 μg of plasmid DNA was transfected in each well of a 6-well plate. To measure BRET signals, cells were washed twice with permeabilization buffer (KPS) containing 140 mM KCl, 10 mM NaCl, 1 mM MgCl2, 0.1 mM KEGTA, 20 mM NaHEPES (pH 7.2), harvested by trituration, permeabilized in KPS buffer containing 10 μg ml^−1 high purity digitonin, and transferred to opaque black 96-well plates containing diluted ligands and 2U ml^−1 apyrase. After addition of coelenterazine h (5 µM; Nanolight, Pinetop, AZ, USA), steady-state BRET measurements were made using a Mithras LB940 photon-counting plate reader (Berthold Technologies GmbH, Bad Wildbad, Germany). Raw BRET signals were calculated as the emission intensity at 520–545 nm divided by the emission intensity at 475–495 nm. The data were analyzed in Prism (GraphPad) by using ‘log(agonist) vs normalized response- variable slope (four parameters)’ of dose-response stimulation."}, "FPR2 R201A [3]": {"biological_target": "T3, FPR2 R201A (Homo sapiens, UniProt P25090, R201A)", "experiment": "BRET assay of Gi coupling to FPR2-Rluc8, permeabilized HEK-293 cells, R201A", "assay_type": "cell-based", "set-up": "expressed in transfected cells; host or cells: HEK-293 cells (ATCC), transient, digitonin-permeabilized", "protocol": "as §1"}, "FPR2 R201A [4]": {"biological_target": "T3, FPR2 R201A", "experiment": "35S-GTPγS binding assay, HEK-293 cell membranes with purified Gi, FPR2 R201A", "assay_type": "biochemical", "set-up": "FLAG; expressed in transfected cells; host or cells: HEK-293 cells, transient, membranes"}, "FPR2 R205A [5]": {"biological_target": "T2, FPR2 R205A", "experiment": "35S-GTPγS binding assay, HEK-293 cell membranes with purified Gi, FPR2 R205A", "assay_type": "biochemical", "set-up": "FLAG; expressed in transfected cells; host or cells: HEK-293 cells, transient, membranes"}, "Wild type FPR2": {"system": "Wild type FPR2", "conditions": "cited from earlier work", "from_the_text": "IC50 values of six formylpeptides in the cAMP accumulation assays reported previously by He et al., 2014*."}},
  "data": [
    {"substance": "Trp-Lys-Tyr-Met-Val-d-Met-NH2 [WKYMVm, synthetic peptide agonist of FPR2]", "values": [
      {"measurement": "potency for FPR1 compared with FPR2", "setting": "FPR1", "value": "lower potency"},
      {"measurement": "WKYMVm-induced Gi activation with C5aR (control)", "setting": "C5aR", "value": "didn’t induce Gi activation"}
    ]},
    {"substance": "fMLF", "values": [
      {"measurement": "fold more potent in activating FPR1 than activating FPR2", "setting": "FPR1", "value": "~ 1000 fold"}
    ]},
    {"substance": "fMLFII [short formylpeptide]", "values": [
      {"measurement": "concentration above which fractions of aggregation could occur", "setting": "[1]", "value": "above 10 µM"},
      {"measurement": "fMLFII-induced Gi coupling, R205A mutant versus wt", "setting": "FPR2 R205A [2]", "value": "dramatic decrease"},
      {"measurement": "fMLFII-induced Gi coupling, R201A mutant versus wt", "setting": "FPR2 R201A [3]", "value": "dramatic decrease"},
      {"measurement": "fMLFII-induced FPR2 activation, R201A mutant versus wt", "setting": "FPR2 R201A [4]", "value": "dramatic decrease"},
      {"measurement": "fMLFII-induced FPR2 activation, R205A mutant versus wt", "setting": "FPR2 R205A [5]", "value": "dramatic decrease"}
    ]},
    {"substance": "fMLFK", "values": [
      {"measurement": "fold higher potency in activating FPR2 than fMLFE", "setting": "Wild type FPR2", "value": "500–5000 fold"}
    ]}
  ]
}
